Assay results from patent US20190343908A1, “Therapeutic Combination for the Treatment of Cancer” (Nerium Biotechnology Inc., priority 2011, published 2019).

Columns and labels:
[1] = test system: PANC-1 pancreatic cancer cell line; assay: Methyl-Tetrazolium viability assay, PANC-1; assay type: cell-based, human; parameters: key to Average MTT: absorbance at 570 nm (optical density); conditions: for ABSORBANCE: 0.1 μg/mL cisplatin; for MTT 24 h / MTT 48 h / MTT 72 h: Run 1 average
Excerpt: The Methyl-Tetrazolium dye assay measures the activity of enzymes in mitochondria. The dye precursor is taken up by cells, where it undergoes reduction to the purple formazan. It measures only the mitochondrial activity and, thus, it is not always a reliable indication of whether the cells themselves are alive or dead, since even a recently dead cell has […] enzyme activity in mitochondria. Intracellular glucose concentration, pH, and time before assay all affect the measurements.
(§1) The Methyl Tetrazolium, Sulforhodamine B, and Crystal Violet assays were used to assess cell viabilities. The incubation times were 24 hours, 48 hours, and 72 hours. The Nerium oleander extract Anvirzel™ (a hot water extract of oleander obtained from Salud Integral, Honduras) was tested in concentrations ranging from 0.01 ng/mL to 10 ng/mL.
(§2) Cells were detached by trypsinization (Trypsin-0.25% EDTA, Invitrogen, 25200-072) during the logarithmic phase of culture growth and plated in 96-well plates (18.000 cells/well) (Corning, Costar 359) in a final volume of 200 μl of medium per well. […] The absorbance was measured after 24 hours, 48 hours, and 72 hours of incubation.
For the Methyl-Tetrazolium assay, the dye (Sigma, M2128; 5 mg/mL, diluted in phosphate-buffered saline) was added to each well and plates were incubated for 3 hours at 37° C. After the end of the incubation period, the medium was discarded and the cells were rinsed with phosphate-buffered saline. Finally, the formazan crystals were dissolved in dimethylsulphoxide (Sigma, D4540).
(§3) The optical density of each plate was measured on a μQuant spectrophotometer and the data were analyzed with Gen5 software (μQuant Biomolecular Spectrophotometer MQX200 and Gen5™ Microplate Data Collection & Analysis software, BioTek® Instruments. Inc, April 2008). Absorbance was measured at 570 nm for all assays and a second wavelength was measured in order to subtract noise. For the Methyl-Tetrazolium assay this second wavelength was 630 nm and for the Sulforhodamine B and Crystal Violet assays it was 690 nm.

[2] = test system: HCT-116 (colorectal cancer); assay: Crystal Violet viability assay, HCT-116; assay type: cell-based, human; parameters: key: absorbance at 570 nm (crystal violet), background wavelength subtracted; conditions: for Average CVE: HCT-116
Excerpt: Three different viability assays were chosen to complement each other and yielded results dependent on concentration and cell line: the Methyl Tetrazolium dye assay, the Sulforhodamine B fluorescent dye assay, and the Crystal Violet dye assay.
The Sulforhodamine B and Crystal Violet assays provide information about protein and were used to complement the Methyl-Tetrazolium dye assay. […] It is used for the quantification of cellular proteins of cultured cells. The assay using Crystal Violet, a dye that binds electrostatically to proteins and stains DNA, provides a reliable, simple assay for measuring viability of cells.
as §1, §2
For the Crystal Violet assay, the medium was removed from the 96-well plates, the plates rinsed with PBS (Sigma, P3813) and then the cells were […] by the addition of 10% formalin (MERCK, 1.04003.2500) for 20 minutes at RT. Formalin was removed and 0.25% aqueous crystal violet (Sigma, HT901), dissolved in water, was added for 10 minutes at RT. Unbound Crystal Violet was rinsed by washing with water and finally 33% acetic acid was added to dissolve the dye.
as §3

N.N.[Cl][Pt][Cl] [cisplatin]
ABSORBANCE ([1]; PANC-1, 48 h): 0.286
ABSORBANCE ([1]; PANC-1, 72 h): 0.344
Average MTT ([1]; PANC-1, Run 2, 24 h, 0.1 μg/ml CDDP): 0.096
Average MTT ([1]; PANC-1, Run 2, 24 h, 1 μg/ml CDDP): 0.029
Average MTT ([1]; PANC-1, Run 2, 24 h, 10 μg/ml CDDP): 0.058
Average MTT ([1]; PANC-1, Run 2, 24 h, 100 μg/ml CDDP): 0.029
Average MTT ([1]; PANC-1, Run 2, 48 h, 0.1 μg/ml CDDP): 0.178
Average MTT ([1]; PANC-1, Run 2, 48 h, 1 μg/ml CDDP): 0.037
Average MTT ([1]; PANC-1, Run 2, 48 h, 10 μg/ml CDDP): 0.041
Average MTT ([1]; PANC-1, Run 2, 48 h, 100 μg/ml CDDP): 0.034
Average MTT ([1]; PANC-1, Run 2, 72 h, 0.1 μg/ml CDDP): 0.241
Average MTT ([1]; PANC-1, Run 2, 72 h, 1 μg/ml CDDP): 0.033
Average MTT ([1]; PANC-1, Run 2, 72 h, 10 μg/ml CDDP): 0.04
Average MTT ([1]; PANC-1, Run 2, 72 h, 100 μg/ml CDDP): 0.033
Average MTT ([1]; PANC-1, Run 3, 24 h, 0.1 μg/ml CDDP): 0.076
Average MTT ([1]; PANC-1, Run 3, 24 h, 1 μg/ml CDDP): 0.02
Average MTT ([1]; PANC-1, Run 3, 24 h, 10 μg/ml CDDP): 0.04
Average MTT ([1]; PANC-1, Run 3, 24 h, 100 μg/ml CDDP): 0.022
Average MTT ([1]; PANC-1, Run 3, 48 h, 0.1 μg/ml CDDP): 0.286
Average MTT ([1]; PANC-1, Run 3, 48 h, 1 μg/ml CDDP): 0.043
Average MTT ([1]; PANC-1, Run 3, 48 h, 10 μg/ml CDDP): 0.045
Average MTT ([1]; PANC-1, Run 3, 48 h, 100 μg/ml CDDP): 0.044
Average MTT ([1]; PANC-1, Run 3, 72 h, 0.1 μg/ml CDDP): 0.344
Average MTT ([1]; PANC-1, Run 3, 72 h, 1 μg/ml CDDP): 0.049
Average MTT ([1]; PANC-1, Run 3, 72 h, 10 μg/ml CDDP): 0.05
Average MTT ([1]; PANC-1, Run 3, 72 h, 100 μg/ml CDDP): 0.049
MTT 24 h ([1]; 0.1 μg/ml CDDP): 0.169
MTT 48 h ([1]; 0.1 μg/ml CDDP): 0.24
MTT 24 h ([1]; 1 μg/ml CDDP): 0.035
MTT 48 h ([1]; 1 μg/ml CDDP): 0.035
MTT 72 h ([1]; 1 μg/ml CDDP): 0.03
MTT 24 h ([1]; 10 μg/ml CDDP): 0.048
MTT 48 h ([1]; 10 μg/ml CDDP): 0.038
MTT 72 h ([1]; 10 μg/ml CDDP): 0.035
MTT 24 h ([1]; 100 μg/ml CDDP): 0.034
MTT 48 h ([1]; 100 μg/ml CDDP): 0.039
MTT 72 h ([1]; 100 μg/ml CDDP): 0.032
CVE Average ([2]; HCT-116, Run 3, 24 h, 0.1 μg/ml CDDP): 0.371
CVE Average ([2]; HCT-116, Run 3, 24 h, 1 μg/ml CDDP): 0.267
CVE Average ([2]; HCT-116, Run 3, 24 h, 10 μg/ml CDDP): 0.393
CVE Average ([2]; HCT-116, Run 3, 24 h, 100 μg/ml CDDP): 0.256
CVE Average ([2]; HCT-116, Run 3, 48 h, 0.1 μg/ml CDDP): 1.153
CVE Average ([2]; HCT-116, Run 3, 48 h, 1 μg/ml CDDP): 0.687
CVE Average ([2]; HCT-116, Run 3, 48 h, 10 μg/ml CDDP): 0.993
CVE Average ([2]; HCT-116, Run 3, 48 h, 100 μg/ml CDDP): 0.359
CVE Average ([2]; HCT-116, Run 3, 72 h, 0.1 μg/ml CDDP): 1.078
CVE Average ([2]; HCT-116, Run 3, 72 h, 1 μg/ml CDDP): 0.235
CVE Average ([2]; HCT-116, Run 3, 72 h, 10 μg/ml CDDP): 0.476
CVE Average ([2]; HCT-116, Run 3, 72 h, 100 μg/ml CDDP): 0.214
Average CVE ([2]; Run 1, 24 h, 0.1 μg/ml CDDP): 0.569
Average CVE ([2]; Run 1, 24 h, 1 μg/ml CDDP): 0.563
Average CVE ([2]; Run 1, 24 h, 10 μg/ml CDDP): 1.173
Average CVE ([2]; Run 1, 24 h, 100 μg/ml CDDP): 0.344
Average CVE ([2]; Run 1, 48 h, 0.1 μg/ml CDDP): 0.984
Average CVE ([2]; Run 1, 48 h, 1 μg/ml CDDP): 0.624
Average CVE ([2]; Run 1, 48 h, 10 μg/ml CDDP): 0.488
Average CVE ([2]; Run 1, 48 h, 100 μg/ml CDDP): 0.356
Average CVE ([2]; Run 1, 72 h, 0.1 μg/ml CDDP): 1.352
Average CVE ([2]; Run 1, 72 h, 1 μg/ml CDDP): 0.308
Average CVE ([2]; Run 1, 72 h, 10 μg/ml CDDP): 0.501
Average CVE ([2]; Run 1, 72 h, 100 μg/ml CDDP): 0.51
Average CVE ([2]; Run 2, 24 h, 0.1 μg/ml CDDP): 0.52
Average CVE ([2]; Run 2, 24 h, 1 μg/ml CDDP): 0.302
Average CVE ([2]; Run 2, 24 h, 10 μg/ml CDDP): 0.477
Average CVE ([2]; Run 2, 24 h, 100 μg/ml CDDP): 0.303
Average CVE ([2]; Run 2, 48 h, 0.1 μg/ml CDDP): 0.971
Average CVE ([2]; Run 2, 48 h, 1 μg/ml CDDP): 0.425
Average CVE ([2]; Run 2, 48 h, 10 μg/ml CDDP): 0.608
Average CVE ([2]; Run 2, 48 h, 100 μg/ml CDDP): 0.529
Average CVE ([2]; Run 2, 72 h, 0.1 μg/ml CDDP): 1.187
Average CVE ([2]; Run 2, 72 h, 1 μg/ml CDDP): 0.551
Average CVE ([2]; Run 2, 72 h, 10 μg/ml CDDP): 0.435
Average CVE ([2]; Run 2, 72 h, 100 μg/ml CDDP): 0.492
